Experimental data published in US4686221A, “Quinolinecarboxylic acid compounds and antimicrobial agent containing the same” (Kanebo, Ltd., priority 1985, dated 1987).
Converted amounts (≈) assume the structure as drawn. Where a name gives a salt, the structure may show the parent alone. Read-outs that look alike come from different tables or passages of the source.

Assays:
[1] = system: Staphylococcus aureus IID 803; assay: Antibacterial activity in vitro (minimum inhibitory concentration: MIC); type: cell-based
Method: (§1) Staphylococcus aureus IID 803
(§2) (1) Measurement of antibacterial activity in vitro (minimum inhibitory concentration: MIC):
(§3) The test compounds were each dissolved in 0.1N aqueous potassium hydroxide or sterilized distilled water and diluted with sterilized distilled water to give a standard solution (concentration: 1,000 μg/ml). The test was carried out by a method as appointed by Japan Society of Chemotherapy [cf. Chemotherapy, 29, 76-79 (1981) (TOKYO)].

Escherichia coli KC-14 [2] = assay: Antibacterial activity in vivo (effect against systemic infection: ED50), E. coli infected mice; design: species or system ddY male mice infected with Escherichia coli; conditions: read-out: Antibacterial activity ED50 (50% effective dose)
Method: (§4) (2) Measurement of antibacterial activity in vivo (effect against systemic infection: ED50):
(§5) The test microorganism was cultured by stationary culture in an agar medium (Trypto-Soya Agar "Nissui", manufactured by Nissui Seiyaku K.K., Japan) at 37° C. for 16 to 18 hours. The culture was diluted with PBS (Dulbecco's phosphate buffered saline) and then was mixed with an equiamount of 10% (W/V) mucin (BACTO MUCIN BACTERIOLOGICAL, manufactured by Difco Co.). The mixture thus prepared was intraperitoneally inoculated to fasted ddY male mice (4 weeks age, weighing 18-20 g, one group: 5 mice) in a dose of 0.5 ml. The inoculum size was 1.3×10^7 CFU/mouse in case of S. aureus IID 803, and 9.7×10^3 CFU/mouse in case of E. coli KC-14.
(§6) The mice were daily observed for one week, and from the survival number of mice after one week, the 50% effective dose (ED50) was calculated by the Weil method.

[3] = system: Staphylococcus aureus IID 803; assay: Antibacterial activity in vivo (effect against systemic infection: ED50), S. aureus infected mice; design: species or system ddY male mice infected with Staphylococcus aureus; conditions: read-out: Antibacterial activity ED50 (50% effective dose)
Method: as §1, §4, §5, §6

Escherichia coli KC-14 [4] = assay: Antibacterial activity in vitro (minimum inhibitory concentration: MIC); type: cell-based
Method: as §2, §3

in vivo = conditions: mouse, po
Method: EXPERIMENT 2: ACUTE TOXICITY (LD50)
The number of dead mice during 2 weeks after administration was counted, and the acute toxicity (LD50) was calculated by Weil method.

[5] = IID803, S. aureus IID 803, in vitro, read-out: Antibacterial activity MIC (minimum inhibitory concentration)
[6] = KC14, 168 h, E. coli KC-14 systemic infection, mice, oral 1 h after infection, survival after one week
[7] = IID803, 168 h, S. aureus IID 803 systemic infection, mice, oral 1 h after infection, survival after one week
[8] = KC14, E. coli KC-14, in vitro, read-out: Antibacterial activity MIC (minimum inhibitory concentration)

Compound | MIC [1, 5] [mg/L] | ED50 (Escherichia coli KC-14 [2]; [6]) [mg/kg] | ED50 [3, 7] [mg/kg] | MIC (Escherichia coli KC-14 [4]; [8]) [mg/L] | LD50 at 336 h (in vivo) [mg/kg] | MIC ([1]; IID803, read-out: Antibacterial activity MIC (minimum inhibitory concentration)) [mg/L] | ED50 (Escherichia coli KC-14 [2]; KC14, po, 168 h) [mg/kg] | ED50 ([3]; IID803, po, 168 h) [mg/kg] | MIC (Escherichia coli KC-14 [4]; KC14, read-out: Antibacterial activity MIC (minimum inhibitory concentration)) [mg/L]
CCn1cc(C(=O)O)c(=O)c2cc(F)c(N3CCN(O)CC3)cc21 [compound 1, 1-Ethyl-6-fluoro-1,4-dihydro-7-(4-hydroxypiperazin-1-yl)-4-oxoquinoline-3-carboxylic acid] | 1.56 (≈ 4.65 µM) | 1.92 | 187 | 0.39 (≈ 1.16 µM) | > 4000 | – | – | – | –
Cl.O=C(O)c1cn(C2CC2)c2cc(N3CCNCC3)c(F)cc2c1=O [B, 1-Cyclopropyl-6-fluoro-1,4-dihydro-7-(piperazin-1-yl)-4-oxoquinoline-3-carboxylic acid hydrochloride, reference compound] | – | – | – | – | – | 0.78 | 0.84 | 46.7 | 0.0125
Cl.O=C(O)c1cn(C2CC2)c2c(F)c(N3CCNCC3)c(F)cc2c1=O [E, 1-Cyclopropyl-6,8-difluoro-1,4-dihydro-7-(piperazin-1-yl)-4-oxoquinoline-3-carboxylic acid hydrochloride, reference compound] | 0.2 | 0.28 | 5.07 | 0.0125 | 1410 | – | – | – | –
Cl.O=C(O)c1cn(CCF)c2c(F)c(N3CCNCC3)c(F)cc2c1=O [D, 6,8-Difluoro-1-(2-fluoroethyl)-1,4-dihydro-7-(piperazin-1-yl)-4-oxoquinoline-3-carboxylic acid hydrochloride, reference compound] | 1.56 | 5.82 | 123 | 0.2 | – | – | – | – | –
CCn1cc(C(=O)O)c(=O)c2cc(F)c(N3CCNCC3)c(F)c21.Cl [C, 1-Ethyl-6,8-difluoro-1,4-dihydro-7-(piperazin-1-yl)-4-oxoquinoline-3-carboxylic acid hydrochloride, reference compound] | 0.78 | 1.46 | 40.3 | 0.1 | 1070 | – | – | – | –
CCn1cc(C(=O)O)c(=O)c2cc(F)c(N3CCN(O)CC3)c(F)c21.Cl [compound 3, 1-Ethyl-6,8-difluoro-1,4-dihydro-7-(4-hydroxypiperazin-1-yl)-4-oxoquinoline-3-carboxylic acid hydrochloride] | 0.78 | 0.84 | 26.8 | 0.2 | > 4000 | – | – | – | –
O=C(O)c1cn(C2CC2)c2cc(N3CCN(O)CC3)c(F)cc2c1=O [compound 2, 1-Cyclopropyl-6-fluoro-1,4-dihydro-7-(4-hydroxypiperazin-1-yl)-4-oxoquinoline-3-carboxylic acid hydrochloride 1/4 hydrate] | 0.78 | 0.37 | 17.7 | 0.025 | > 4000 | – | – | – | –
CCn1cc(C(=O)O)c(=O)c2cc(F)c(N3CCNCC3)cc21 [A, 1-Ethyl-6-fluoro-1,4-dihydro-7-(piperazin-1-yl)-4-oxoquinoline-3-carboxylic acid, reference compound] | 1.56 (≈ 4.89 µM) | 5.82 | 225 | 0.2 (≈ 0.626 µM) | – | – | – | – | –
Cl.O.O=C(O)c1cn(CCF)c2c(F)c(N3CCN(O)CC3)c(F)cc2c1=O [compound 4, 6,8-Difluoro-1-(2-fluoroethyl)-1,4-dihydro-7-(4-hydroxypiperazin-1-yl)-4-oxoquinoline-3-carboxylic acid hydrochloride monohydrate] | 1.56 | 1.46 | 107 | 0.39 | > 4000 | – | – | – | –
Cl.O=C(O)c1cn(C2CC2)c2c(F)c(N3CCN(O)CC3)c(F)cc2c1=O [compound 5, 1-Cyclopropyl-6,8-difluoro-1,4-dihydro-7-(4-hydroxypiperazin-1-yl)-4-oxoquinoline-3-carboxylic acid hydrochloride] | 0.39 | 0.19 | 3.84 | 0.05 | > 4000 | – | – | – | –
